Reference: ChEMBL document CHEMBL1201862, “PubChem BioAssay data set” (2004)
The source made the active and inactive calls.

What was measured:
[1] = inhibitors of intracellular T. cruzi replication, confirmation, NIH3T3 host cells, beta-gal luminescence (AID 2044); format: functional, cell-based;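 note: intracellular parasites grown in NIH/3T3 mouse fibroblasts as host cells; luminescent beta-galactosidase reporter signal from transgenic T. cruzi replicating inside host cells; inhibitors lower the luminescence signal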
[2] = cytotoxicity toward NIH3T3 fibroblasts, dose response, counter-screen, cell-based, ATP luminescence, mouse fibroblasts (AID 2010); format: functional;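 note: cells exposed to compound for about 90 hours before reading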
[3] = Luminescence Cell-Based Dose Retest to Confirm Inhibitors of Cancer Stem Cells. [Related pubchem assays (depositor defined):AID2717, AID2721]; format: functional; conditions: Homo sapiens
[4] = molecular target: T1, Short transient receptor potential channel 4 (Mus musculus, UniProt Q9QUQ5); assay: mouse TRPC4 channel activators, dose response, cell-based, HEK293 TRPC4/mu-opioid, Fluo-4 calcium (AID 434937); format: functional
T1 sequence (Q9QUQ5 whole entry): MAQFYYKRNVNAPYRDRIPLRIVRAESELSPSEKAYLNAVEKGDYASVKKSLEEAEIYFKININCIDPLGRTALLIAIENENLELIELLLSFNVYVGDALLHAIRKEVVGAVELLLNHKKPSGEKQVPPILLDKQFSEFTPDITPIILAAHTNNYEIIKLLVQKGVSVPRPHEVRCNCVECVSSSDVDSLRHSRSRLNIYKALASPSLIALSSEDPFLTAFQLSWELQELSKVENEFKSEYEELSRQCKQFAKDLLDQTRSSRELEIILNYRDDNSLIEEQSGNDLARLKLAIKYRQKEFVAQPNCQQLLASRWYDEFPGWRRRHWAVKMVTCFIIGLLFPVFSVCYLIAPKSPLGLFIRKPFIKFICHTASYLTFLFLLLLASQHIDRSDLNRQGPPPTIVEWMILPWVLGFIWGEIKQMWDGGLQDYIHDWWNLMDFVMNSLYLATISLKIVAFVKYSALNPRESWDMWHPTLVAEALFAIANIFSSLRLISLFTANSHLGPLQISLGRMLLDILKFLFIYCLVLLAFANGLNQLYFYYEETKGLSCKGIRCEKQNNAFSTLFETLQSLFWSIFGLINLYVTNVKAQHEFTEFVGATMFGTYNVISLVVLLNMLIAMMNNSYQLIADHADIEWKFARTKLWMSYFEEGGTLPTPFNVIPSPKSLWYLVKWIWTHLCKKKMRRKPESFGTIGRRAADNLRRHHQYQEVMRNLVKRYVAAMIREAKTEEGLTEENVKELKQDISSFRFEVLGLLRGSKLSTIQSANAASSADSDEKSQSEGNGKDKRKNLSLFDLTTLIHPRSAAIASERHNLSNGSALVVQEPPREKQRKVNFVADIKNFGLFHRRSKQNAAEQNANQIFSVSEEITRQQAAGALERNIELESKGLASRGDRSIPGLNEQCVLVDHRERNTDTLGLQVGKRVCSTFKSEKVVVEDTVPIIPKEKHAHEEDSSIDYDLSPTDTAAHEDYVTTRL

[5] = Shn3 3'UTR reporter inhibitors, dose response, cell-based, Clone20 osteoblasts, firefly luciferase, cherry-picked (AID 624132); format: functional;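 note: firefly luciferase luminescence from reporter carrying the Shn3 3'UTR in osteoblasts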
[6] = HepG2 cell cytotoxicity, dose response, cytotoxicity control for Shn3 inhibitor project, CellTiter-Glo, cherry-picked (AID 624134); format: functional, cell-based
[7] = control 3'UTR Renilla luciferase suppression, dose response, counter-screen for Shn3 inhibitor project, cell-based, Clone20-Shn3RL, cherry-picked (AID 624133); format: functional
[8] = HeLa cell cytotoxicity, dose response, cytotoxicity control for MgcRacGAP inhibitor project (AID 624300); format: functional
[9] = molecular target: T2, Rac GTPase-activating protein 1 (Homo sapiens, UniProt Q9H0H5); assay: MgcRacGAP GTPase-activating activity inhibitors, confirmation, biochemical, ADP Hunter fluorescence, primary and confirmatory (AID 624330); format: functional
T2 sequence (Q9H0H5 whole entry): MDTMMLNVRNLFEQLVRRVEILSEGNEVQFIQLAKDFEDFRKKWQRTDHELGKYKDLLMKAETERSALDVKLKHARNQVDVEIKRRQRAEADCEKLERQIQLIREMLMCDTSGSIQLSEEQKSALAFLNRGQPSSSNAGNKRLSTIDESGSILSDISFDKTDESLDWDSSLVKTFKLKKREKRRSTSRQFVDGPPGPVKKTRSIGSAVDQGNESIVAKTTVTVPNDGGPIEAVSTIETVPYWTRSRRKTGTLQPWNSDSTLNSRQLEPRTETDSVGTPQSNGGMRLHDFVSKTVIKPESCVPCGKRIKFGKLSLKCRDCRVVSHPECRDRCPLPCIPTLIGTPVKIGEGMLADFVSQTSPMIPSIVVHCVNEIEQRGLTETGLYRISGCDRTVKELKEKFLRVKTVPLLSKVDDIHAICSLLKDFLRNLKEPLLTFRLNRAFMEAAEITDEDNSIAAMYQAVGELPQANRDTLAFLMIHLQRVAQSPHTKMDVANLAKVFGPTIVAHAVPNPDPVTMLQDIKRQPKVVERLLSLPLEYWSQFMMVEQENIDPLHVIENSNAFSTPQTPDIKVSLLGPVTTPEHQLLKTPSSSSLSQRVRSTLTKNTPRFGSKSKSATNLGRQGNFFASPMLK

[10] = molecular target: T3, Voltage-gated N-type calcium channel alpha-1B subunit/Amyloid beta A4 precursor protein-binding family A member 1 (Homo sapiens, UniProt Q00975+Q02410); format: protein assay
[11] = molecular target: T3, Voltage-gated N-type calcium channel alpha-1B subunit/Amyloid beta A4 precursor protein-binding family A member 1; format: protein assay; remark: listed apart in the source
[12] = molecular target: T4, Low molecular weight phosphotyrosine protein phosphatase (Homo sapiens, UniProt P24666); format: functional; conditions: read-out: IC50_Mean
T4 sequence (P24666 whole entry): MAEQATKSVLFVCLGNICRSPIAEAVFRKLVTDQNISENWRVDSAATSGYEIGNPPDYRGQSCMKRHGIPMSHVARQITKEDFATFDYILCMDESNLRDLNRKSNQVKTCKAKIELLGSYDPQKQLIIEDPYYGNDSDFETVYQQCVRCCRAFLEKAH

[13] = molecular target: T4, Low molecular weight phosphotyrosine protein phosphatase; format: functional; conditions: read-out: IC50_Mean; remark: listed apart in the source
[14] = molecular target: T5, Microphthalmia-associated transcription factor (Homo sapiens, UniProt O75030); assay: TRPM1 promoter luciferase signal decrease, dose response, MITF inhibitor project, cell-based, SK-MEL-5, cherry-picked, set 3 (AID 493073); format: functional
T5 sequence (O75030 whole entry): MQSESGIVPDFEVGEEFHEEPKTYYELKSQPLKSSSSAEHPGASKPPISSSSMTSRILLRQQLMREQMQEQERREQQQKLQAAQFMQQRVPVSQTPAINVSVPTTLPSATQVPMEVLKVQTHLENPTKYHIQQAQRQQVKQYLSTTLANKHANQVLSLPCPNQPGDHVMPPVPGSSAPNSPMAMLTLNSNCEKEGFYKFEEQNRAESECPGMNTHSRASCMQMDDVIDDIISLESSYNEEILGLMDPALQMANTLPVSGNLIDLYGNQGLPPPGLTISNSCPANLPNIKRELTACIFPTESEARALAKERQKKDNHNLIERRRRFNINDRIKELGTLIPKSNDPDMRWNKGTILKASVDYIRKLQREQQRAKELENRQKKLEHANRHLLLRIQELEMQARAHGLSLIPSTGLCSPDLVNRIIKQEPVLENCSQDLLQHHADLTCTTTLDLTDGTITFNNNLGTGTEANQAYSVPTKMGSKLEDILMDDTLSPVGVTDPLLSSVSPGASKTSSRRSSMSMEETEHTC

[15] = Fluorescence-based cell-based high throughput dose response assay for inhibitors of the interaction of nucleotide-binding oligomerization domain containing 2 (NOD2) and the receptor-interacting serine-threonine kinase 2 (RIPK2).; format: functional; conditions: Homo sapiens
[16] = molecular target: T6, Carboxy-terminal domain RNA polymerase II polypeptide A small phosphatase 1 (Homo sapiens, UniProt Q9GZU7); assay: inhibitors of CTDSP1, concentration-response testing, biochemical assay, absorbance-based, actives from ultra-high-throughput screening (AID 540297); format: functional
T6 sequence (Q9GZU7 whole entry): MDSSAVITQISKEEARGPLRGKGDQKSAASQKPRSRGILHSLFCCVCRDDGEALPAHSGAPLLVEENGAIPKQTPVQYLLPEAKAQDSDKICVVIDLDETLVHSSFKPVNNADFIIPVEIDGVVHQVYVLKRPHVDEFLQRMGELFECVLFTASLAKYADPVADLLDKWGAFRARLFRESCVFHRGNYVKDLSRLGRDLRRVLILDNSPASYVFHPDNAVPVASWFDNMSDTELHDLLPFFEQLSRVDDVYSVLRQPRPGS

[17] = molecular target: T7, Small ubiquitin-related modifier 1 (Homo sapiens, UniProt P63165); assay: inhibitors of SUMO1 peptide binding, dose response, biochemical, fluorescence polarization, uHTS hits (AID 624382); format: functional; conditions: read-out: IC50_Mean
[18] = molecular target: T7, Small ubiquitin-related modifier 1; assay: inhibitors of SUMO1 partner interactions, dose response, biochemical, FRET (AID 624383); format: functional; conditions: read-out: IC50_Mean
INS1 = assay: beta cell apoptosis inhibitors, cytokine rescue, dose response, luminescence, retest (AID 449756); format: functional, cell-based; conditions: Rattus norvegicus;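 note: cell death triggered by IL-1 beta plus TNF-alpha plus IFN-gamma mixture; protective hits raise ATP signal compared with cytokine alone wells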

T3 sequence (Q00975 whole entry): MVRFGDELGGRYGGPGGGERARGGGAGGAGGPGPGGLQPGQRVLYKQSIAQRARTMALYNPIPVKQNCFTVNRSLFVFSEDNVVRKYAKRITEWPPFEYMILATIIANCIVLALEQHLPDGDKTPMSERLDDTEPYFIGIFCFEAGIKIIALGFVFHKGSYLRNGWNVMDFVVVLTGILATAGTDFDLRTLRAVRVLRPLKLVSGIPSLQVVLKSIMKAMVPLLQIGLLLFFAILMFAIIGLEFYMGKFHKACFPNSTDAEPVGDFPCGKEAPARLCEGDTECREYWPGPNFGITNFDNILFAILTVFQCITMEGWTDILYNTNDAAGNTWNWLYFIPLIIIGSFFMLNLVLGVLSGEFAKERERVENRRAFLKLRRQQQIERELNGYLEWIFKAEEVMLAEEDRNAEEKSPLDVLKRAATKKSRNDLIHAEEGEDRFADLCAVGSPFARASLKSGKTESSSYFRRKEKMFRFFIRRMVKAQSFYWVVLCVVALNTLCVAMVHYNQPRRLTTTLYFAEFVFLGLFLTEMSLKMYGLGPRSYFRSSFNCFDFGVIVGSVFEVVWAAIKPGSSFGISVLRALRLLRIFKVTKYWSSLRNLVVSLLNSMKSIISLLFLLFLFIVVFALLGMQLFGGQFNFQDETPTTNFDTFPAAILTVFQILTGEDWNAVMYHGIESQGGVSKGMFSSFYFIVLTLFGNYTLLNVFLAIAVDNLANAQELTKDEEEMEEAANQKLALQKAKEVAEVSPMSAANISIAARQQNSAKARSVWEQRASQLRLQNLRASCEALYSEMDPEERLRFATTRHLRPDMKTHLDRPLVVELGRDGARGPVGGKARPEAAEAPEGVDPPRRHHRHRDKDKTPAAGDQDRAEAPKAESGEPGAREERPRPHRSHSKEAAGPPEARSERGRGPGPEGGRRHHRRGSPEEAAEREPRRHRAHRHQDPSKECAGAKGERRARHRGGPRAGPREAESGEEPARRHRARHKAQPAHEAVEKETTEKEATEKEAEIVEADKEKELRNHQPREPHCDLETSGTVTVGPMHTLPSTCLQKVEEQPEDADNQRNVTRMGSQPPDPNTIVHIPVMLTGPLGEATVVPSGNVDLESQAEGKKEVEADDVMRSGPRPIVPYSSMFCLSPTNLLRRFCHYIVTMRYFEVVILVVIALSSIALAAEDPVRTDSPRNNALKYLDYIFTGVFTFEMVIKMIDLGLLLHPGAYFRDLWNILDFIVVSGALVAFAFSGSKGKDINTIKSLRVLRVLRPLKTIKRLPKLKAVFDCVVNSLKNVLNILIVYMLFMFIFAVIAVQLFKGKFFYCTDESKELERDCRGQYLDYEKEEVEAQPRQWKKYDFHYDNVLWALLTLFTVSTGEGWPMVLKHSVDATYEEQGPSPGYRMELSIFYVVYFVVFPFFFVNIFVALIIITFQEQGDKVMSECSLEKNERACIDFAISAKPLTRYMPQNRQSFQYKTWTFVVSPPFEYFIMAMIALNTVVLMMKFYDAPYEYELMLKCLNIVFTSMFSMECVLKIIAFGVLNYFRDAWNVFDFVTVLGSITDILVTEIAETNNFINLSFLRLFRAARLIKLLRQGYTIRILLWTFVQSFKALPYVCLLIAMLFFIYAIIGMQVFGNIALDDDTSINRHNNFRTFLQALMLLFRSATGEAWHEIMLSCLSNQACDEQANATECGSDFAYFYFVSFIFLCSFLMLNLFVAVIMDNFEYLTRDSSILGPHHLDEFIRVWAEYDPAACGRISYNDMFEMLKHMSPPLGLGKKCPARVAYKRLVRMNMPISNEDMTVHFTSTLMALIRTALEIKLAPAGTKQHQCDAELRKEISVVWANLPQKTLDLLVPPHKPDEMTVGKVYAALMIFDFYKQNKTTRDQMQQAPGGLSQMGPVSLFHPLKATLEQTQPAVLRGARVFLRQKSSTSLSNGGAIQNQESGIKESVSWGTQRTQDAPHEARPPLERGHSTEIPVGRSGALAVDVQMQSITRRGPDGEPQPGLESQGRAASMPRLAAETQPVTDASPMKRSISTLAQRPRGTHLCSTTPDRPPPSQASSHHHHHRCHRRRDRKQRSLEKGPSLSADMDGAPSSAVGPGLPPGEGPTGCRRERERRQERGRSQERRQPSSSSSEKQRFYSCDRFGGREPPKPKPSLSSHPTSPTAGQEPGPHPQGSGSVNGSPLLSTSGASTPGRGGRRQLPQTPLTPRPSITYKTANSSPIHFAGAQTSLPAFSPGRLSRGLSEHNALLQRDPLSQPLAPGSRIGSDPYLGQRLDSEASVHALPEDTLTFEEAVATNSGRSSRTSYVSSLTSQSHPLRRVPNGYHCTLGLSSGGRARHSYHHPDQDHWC
T3 sequence (Q02410 whole entry): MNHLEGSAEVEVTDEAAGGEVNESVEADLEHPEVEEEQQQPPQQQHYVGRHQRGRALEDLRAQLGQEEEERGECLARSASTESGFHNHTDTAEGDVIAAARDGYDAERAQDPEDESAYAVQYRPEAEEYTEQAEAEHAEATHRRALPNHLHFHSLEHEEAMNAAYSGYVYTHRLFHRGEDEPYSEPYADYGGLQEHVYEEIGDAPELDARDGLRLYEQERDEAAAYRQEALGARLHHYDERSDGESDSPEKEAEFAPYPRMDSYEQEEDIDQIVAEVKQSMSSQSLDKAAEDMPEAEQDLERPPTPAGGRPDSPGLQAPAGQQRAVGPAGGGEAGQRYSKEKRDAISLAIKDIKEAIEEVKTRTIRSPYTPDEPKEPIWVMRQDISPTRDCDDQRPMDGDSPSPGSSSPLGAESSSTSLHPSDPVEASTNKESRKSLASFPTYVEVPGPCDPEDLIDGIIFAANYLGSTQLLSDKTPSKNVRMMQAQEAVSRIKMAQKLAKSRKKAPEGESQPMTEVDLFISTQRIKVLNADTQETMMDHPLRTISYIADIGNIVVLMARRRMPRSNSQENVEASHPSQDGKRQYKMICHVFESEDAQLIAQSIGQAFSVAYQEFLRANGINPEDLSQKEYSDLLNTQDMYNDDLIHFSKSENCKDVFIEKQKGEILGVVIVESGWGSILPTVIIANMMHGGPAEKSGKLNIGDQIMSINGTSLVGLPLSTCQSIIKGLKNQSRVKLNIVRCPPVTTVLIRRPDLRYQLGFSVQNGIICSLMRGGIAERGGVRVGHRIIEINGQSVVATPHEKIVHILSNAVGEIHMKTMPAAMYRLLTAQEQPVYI
T7 sequence (P63165 whole entry): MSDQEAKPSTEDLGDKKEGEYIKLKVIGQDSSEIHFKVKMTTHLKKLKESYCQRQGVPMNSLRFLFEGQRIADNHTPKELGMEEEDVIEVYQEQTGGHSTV

In the case of `COc1ccc(CN2CCC(N(CCc3ccccc3)Cc3ccccc3)CC2)c(OC)c1`, the EC50 [1] is reported as 1.49 µM (active), the EC50 [2] is reported as > 60 µM (inconclusive) and the AC50 [3] is reported as 5.9 µM (active). The EC50 [4] was 5.31 µM (active), the AC50 [5] was 8.1 µM (active) and the AC50 [6] was 13.6 µM (active). For the same molecule, the AC50 [7] was 8.85 µM (active), the CC50 [8] was 56.3 µM (active) and the IC50 [9] was 96.6 µM (active).

For `CCOc1cc(/C=C(/C#N)C(=O)Nc2ccc(OC)cc2)ccc1OCc1ccc(C(=O)O)cc1`, the IC50 [10] was 13.1 µM (active), the IC50 [11] was > 50 µM (inactive) and the IC50 [12] was 6.48 µM (active). The IC50 [13] was 9.46 µM (active).

In the case of `O=C(/C=C/c1ccc(Cl)c([N+](=O)[O-])c1)c1ccc(O)cc1`, the AC50 [3] is reported as 4.36 µM (active), the AC50 [14] is reported as 17.4 µM (active) and the IC50 [15] is reported as 7.04 µM (active).

With `C=Cc1ccc(C(=O)N2CCCC(CCC(=O)N3CCN(c4ccccn4)CC3)C2)cc1` (centres undefined) the IC50 [10] was 8.01 µM (active), the IC50 [11] was > 50 µM (inactive) and the IC50 [16] was 22.2 µM (active). For the same molecule, the IC50 [17] was > 66.6 µM (inactive) and the IC50 [18] was 20.8 µM (inactive).

With `COc1ccc(Br)cc1CN1CCN(Cc2c[nH]c3ccccc23)CC1` the AC50 (INS1) was 6.6 µM (active), the CC50 [8] was 79.4 µM (active) and the IC50 [9] was 86 µM (active).
